These results are taken from ChEMBL document CHEMBL1150024, “Synthesis and antiviral evaluation of enantiomeric 2,3-dideoxy- and 2,3-didehydro-2,3-dideoxy-4-thionucleosides” (Bioorg Med Chem Lett, 1995).

Broadly, the IC50 is the concentration at which inhibition is half-maximal. Higher therefore signals weaker potency.

Data set [1] in a line: In vitro cytotoxic activity against Vero cells. Format: cell-based. As to conditions: chlorocebus sabaeus, read-out: CCID50.
Another data set deals with HeLa. Kind of data set: In vitro antiviral activity against HIV in HeLa CD4 cells. Format: functional, cell-based. As to conditions: Homo sapiens.
The test system of the next data set is HepG2. Kind of data set: In vitro antiviral activity against HBV in Hep G2 cells. Format: functional, cell-based. As to conditions: Homo sapiens.

As to `Nc1ccn([C@@H]2CC[C@H](CO)O2)c(=O)n1`, the CC50 in data set [1] was over 500 µM. For the same compound, the half-maximal inhibitory concentration (IC50) was over 50 µM with HeLa and over 100 µM in the data set with HepG2.

On to `Nc1nc(=O)n([C@H]2C=C[C@@H](CO)S2)cc1F`, for which the CC50 in data set [1] was over 500 µM. Moreover, the IC50 in the data set on HeLa is under 50 µM; in the data set on HepG2, over 50 µM.

For the compound `Nc1ccn([C@@H]2C=C[C@H](CO)S2)c(=O)n1`, the CC50 in data set [1] was over 500 µM. Also, the IC50 in the data set with HeLa and in the data set on HepG2 was 0.8 µM throughout.

In the case of `Nc1nc(=O)n([C@@H]2CC[C@H](CO)O2)cc1F`, the CC50 in data set [1] was over 500 µM. Moreover, the half-maximal inhibitory concentration (IC50) in the data set with HeLa is over 50 µM; in the data set with HepG2, over 100 µM.

Take `Nc1nc(=O)n([C@@H]2C=C[C@H](CO)S2)cc1F`: the CC50 in data set [1] was over 500 µM. In addition, the IC50 in the data set on HeLa was 0.4 µM; with HepG2 it was 3.5 µM.

Turning to `Nc1ccn([C@H]2C=C[C@@H](CO)S2)c(=O)n1`, in data set [1], the CC50 is over 500 µM. The half-inhibitory concentration (IC50) with HeLa was determined as 23 µM; in the data set on HepG2, 15 µM.

Regarding `Nc1ccn([C@H]2CC[C@@H](CO)O2)c(=O)n1` [ZALCITABINE], the CC50 in data set [1] is over 500 µM. Further, the IC50 was 38 µM with HeLa and over 100 µM in the data set on HepG2.
